Read-outs that look alike come from different tables or passages of the source.
Legend:
[1] = Equilibrium dialysis shift assay in PTM plasma; assay type: in vitro ADME, pigtail macaque; conditions: competitive equilibrium dialysis, LEN 2 μM in 10% PTM plasma, 4 donors, 24 h, 37 °C
Procedure: The protein shift ratio for LEN in PTM plasma was determined by competitive equilibrium dialysis. Lenacapavir (2 μM) was spiked into 10% PTM plasma from each of 4 individual donors (3 males and 1 female) and then placed in triplicate into one side of assembled dialysis cells (Harvard Apparatus), followed by the addition of RPMI cell culture medium containing 10% foetal bovine serum to the opposite side of each cell. After a 24-h equilibration period at 37 °C, plasma and cell culture medium samples were collected and individually mixed 1:1 with the reciprocal blank matrix. Samples were then deproteinated following the addition of acetonitrile (1:4 ratio, respectively) containing 50 ng/ml warfarin and 50 ng/ml ritonavir as an internal standard and analysed using a liquid chromatography with tandem mass spectrometry (LC-MS/MS) method utilizing a SciEx API 4000 triple quadrupole mass spectrometer equipped with a Shimadzu Nexera UPLC system. The mean plasma protein binding-adjusted shift for LEN in 100% PTM plasma obtained from 4 independent experiments, each using a single PTM plasma donor performed in triplicate, was then calculated using a non-linear equation.

[2] = Pharmacokinetics of subcutaneous LEN in pigtail macaques; assay type: in vivo, pigtail macaques (Macaca nemestrina); conditions: for range of peak plasma LEN concentration after second dose / mean peak plasma LEN concentration after first dose / range of peak plasma LEN concentration after first dose: N = 3; for time mean plasma drug concentrations above the PA-EC95: two doses 6 weeks apart; for half-life: sc
Procedure: Sixteen male, purpose-bred pigtail macaques (Macaca nemestrina; ages 4.6–8.5 years at the time of study initiation) were housed at NIH-Bethesda (Supplementary Table S1). All study animals received enrofloxacin (10 mg/kg, administered orally, once per day for 10 days), paromomycin (25 mg/kg, administered orally, twice daily for 7–10 days), and fenbendazole (50 mg/kg administered orally, once per day for 5 days) two weeks to 43 months prior to study initiation. Lenacapavir or drug vehicle (sterile, preservative-free 57.5% w/v polyethylene glycol 300 in water) doses were administered to sedated animals via SC injection into the scapular region such that no more than 2 ml of solution was injected into a single SC site. Animals in the LEN pharmacokinetic evaluation study (N = 6) each received two doses of LEN, both at 15 mg/kg (N = 3) or at 50 mg/kg (N = 3), 6 weeks apart. Animals in the virus challenge experiment each received a single dose of LEN at 25 mg/kg (N = 3, LEN PrEP group) or drug vehicle (N = 4, vehicle control group) 30 days prior to stHIV-A19 challenge, or a cART regimen consisting of tenofovir disoproxil fumarate (TDF), emtricitabine (FTC), and dolutegravir (DTG) (N = 3, TDF/FTC/DTG group), coformulated and administered as previously described[29]^,[30] for 7 days beginning 3 days prior to stHIV-A19 challenge (Supplementary Figure S1). Hair was clipped and skin marked at LEN and vehicle injection sites to allow for subsequent visual and manual assessment and scoring of potential ISRs by non-blinded veterinary care staff. Complete blood counts (CBC) and serum chemistries were monitored prior to and at 2- to 4-week intervals after LEN administration for at least one year. Following the first dose of LEN in the PK study, one animal in the 50-mg/kg dosing group received 7 consecutive days of daily ketoprofen (2 mg/kg) administered intramuscularly for ISR analgesia at veterinary discretion. For the second dose of LEN in the PK study, all animals in the 50-mg/kg dosing group received 5–7 consecutive days of twice daily oral carprofen (2 mg/kg) analgesia administered prophylactically starting on the day of LEN dosing. In the IV challenge PrEP study, all LEN and vehicle control animals received 3–5 consecutive days of twice daily oral carprofen (2 mg/kg) analgesia administered prophylactically starting on the day of injection. For virus challenge, PrEP study animals each received 1 × 10^5 infectious units of stHIV-A19 injected intravenously. After LEN washout, LEN PrEP group animals received a single 50-mg/kg dose of rhesusized depleting anti-CD8α antibody (MT807R1, RRID: AB_2716320, NIH Nonhuman Primate Reagent Resource), administered SC to anesthetized animals.
Whole blood was collected in EDTA Vacutainer Tubes (BD) from sedated animals. Plasma for vRNA quantification, LEN concentration determination, and HIV-1 Western blot analysis was separated from whole blood and clarified by centrifugation, and then stored at −80 °C. Following plasma separation, the blood cellular component was resuspended in an equivalent volume of PBS and then PBMCs were isolated by Ficoll-Paque Plus (GE Healthcare) gradient centrifugation. Portions of isolated PBMC samples were cryopreserved as dry cell pellets for CA-vDNA quantification.
Pigtail macaque plasma samples stored frozen at −80 °C were thawed, and a 50 μl aliquot of each was treated with 200 μl acetonitrile containing a generic internal small-molecule standard. After precipitation of the protein component, a 150 μl aliquot of the supernatant was transferred to a clean 96-well plate and evaporated to dryness under a nitrogen stream. The samples were reconstituted with 100 μL of 50% acetonitrile and then injected into an API-6500+ QTRAP triple quadrupole mass spectrometer (SciEx) with electrospray ionization in positive mode. […]

[3] = set-up: method as in earlier work; conditions: single SC injection of 900 mg LEN, Phase 1b clinical trial; cited from earlier work
[4] = 15 mg/kg SC on Study Day 0 and 42, PTM, N = 3, mean ± SD
[5] = 25 mg/kg single SC dose on Study Day 0, PTM, N = 3, mean ± SD
[6] = 25 mg/kg single SC dose, all three animals
[7] = 50 mg/kg SC on Study Day 0 and 42, PTM, N = 3, mean ± SD

Question: Which “projected reduction of antiviral potency in 100% PTM plasma vs complete cell culture media (protein shift)” value [1] does the source give for `CC(C)(C#Cc1ccc(-c2ccc(Cl)c3c(NS(C)(=O)=O)nn(CC(F)(F)F)c23)c([C@H](Cc2cc(F)cc(F)c2)NC(=O)Cn2nc(C(F)(F)F)c3c2C(F)(F)[C@@H]2C[C@H]32)n1)S(C)(=O)=O` [LEN, Lenacapavir] here?
Answer: 9.7 fold

Question: And the “range of peak plasma LEN concentration after second dose” value ([2]; 15 mg/kg SC on Study Day 0 and 42, PTM)?
Answer: 57 to 77 nM

Question: And the AUCinf [2, 4]?
Answer: 80.9 ± 2.5 μM∗h

Question: And the AUClast [2, 4]?
Answer: 80.7 ± 2.5 μM∗h

Question: And the Cmax ([2]; 15 mg/kg SC on Study Day 0 and 42, PTM, N = 3, mean ± SD, read-out: Cmax (mean peak plasma concentration after second dose))?
Answer: 67.8 ± 10.1 nM

Question: What about the “mean peak plasma LEN concentration after first dose” value ([2]; 15 mg/kg SC, PTM) of the same compound?
Answer: 16 nM

Question: And the “range of peak plasma LEN concentration after first dose” value ([2]; 15 mg/kg SC, PTM)?
Answer: 10 to 28 nM

Question: And the “time mean plasma drug concentrations above the PA-EC95” value ([2]; 15 mg/kg SC, PTM)?
Answer: > 189 days

Question: What about the AUCinf [2, 5] of the same compound?
Answer: 92.0 ± 17.8 μM∗h

Question: What about the AUClast [2, 5] of the same compound?
Answer: 91.3 ± 17.8 μM∗h

Question: What about the “plasma LEN concentration at time of stHIV-A19 challenge relative to PA-EC95” value ([2]; 25 mg/kg single SC dose, 30 days after dosing, all 3 animals) of the same compound?
Answer: > 5 fold

Question: What about the “plasma LEN at 419 days post-challenge” value ([2]; 25 mg/kg single SC dose, LEN PrEP animals) of the same compound?
Answer: no longer detected in plasma

Question: And the “time plasma LEN concentrations remaining above the PA-EC95” value [2, 6]?
Answer: > 200 days

Question: What about the “time plasma LEN remaining above the lower limit of quantitation (LLOQ, 0.1 nM)” value [2, 6] of the same compound?
Answer: more than one year

Question: What about the “range of peak plasma LEN concentration after second dose” value ([2]; 50 mg/kg SC on Study Day 0 and 42, PTM) of the same compound?
Answer: 234 to 350 nM

Question: And the AUCinf [2, 7]?
Answer: 408 ± 106 μM∗h

Question: What about the AUClast [2, 7] of the same compound?
Answer: 408 ± 106 μM∗h

Question: And the “mean peak plasma LEN concentration after first dose” value ([2]; 50 mg/kg SC, PTM)?
Answer: 95 nM

Question: What about the “range of peak plasma LEN concentration after first dose” value ([2]; 50 mg/kg SC, PTM) of the same compound?
Answer: 48 to 120 nM

Question: And the “time mean plasma drug concentrations above the PA-EC95” value ([2]; 50 mg/kg SC, PTM)?
Answer: > 245 days

Question: And the half-life ([2]; male, monkey, in vivo, 15 mg/kg, 15 mg/kg SC on Study Day 0 and 42, PTM, N = 3, mean ± SD, read-out: t1/2 (converted))?
Answer: 42.1 ± 28.2 days

Question: What about the half-life ([2]; male, monkey, in vivo, 15 mg/kg, 15 mg/kg SC, after second dose, PTM, read-out: mean terminal half-life (t1/2) (converted)) of the same compound?
Answer: 42 days

Question: What about the half-life ([2]; male, monkey, in vivo, 25 mg/kg, 25 mg/kg single SC dose on Study Day 0, PTM, N = 3, mean ± SD, read-out: t1/2 (converted)) of the same compound?
Answer: 38.5 ± 14.2 days

Question: And the half-life ([2]; male, monkey, in vivo, 50 mg/kg, 50 mg/kg SC on Study Day 0 and 42, PTM, N = 3, mean ± SD, read-out: t1/2 (converted))?
Answer: 48.3 ± 5.83 days

Question: What about the half-life ([2]; male, monkey, in vivo, 50 mg/kg, 50 mg/kg SC, after second dose, PTM, read-out: mean terminal half-life (t1/2) (converted)) of the same compound?
Answer: 48 days

Question: And the Cmax ([2]; male, monkey, plasma, Cmax (mean peak plasma concentration after second dose), 15 mg/kg SC on Study Day 0 and 42, PTM, N = 3, mean ± SD, read-out: Cmax (mean peak plasma concentration after second dose))?
Answer: 68 nM

Question: What about the Cmax ([2]; male, monkey, plasma, Cmax (mean peak plasma concentration after second dose), 50 mg/kg SC on Study Day 0 and 42, PTM, N = 3, mean ± SD, read-out: Cmax (mean peak plasma concentration after second dose)) of the same compound?
Answer: 295 ± 58 nM

Question: What about the Cmax ([2]; male, monkey, plasma, Cmax, 25 mg/kg single SC dose on Study Day 0, PTM, N = 3, mean ± SD, read-out: Cmax) of the same compound?
Answer: 47 ± 5.7 nM

Question: And the half-life ([2]; male, pigtail macaque, in vivo, 25 mg/kg, 25 mg/kg single SC dose, PTM, read-out: mean t1/2 (converted))?
Answer: 38.5 days

Question: What about the concentration at 30 days ([2]; male, pigtail macaque, in vivo, 25 mg/kg single SC dose, 30 days after dosing, range of 3 animals, read-out: plasma LEN concentrations at the time of stHIV-A19 challenge) of the same compound?
Answer: 8.6 to 51.2 nM

Question: And the “mean plasma drug concentrations relative to PA-EC95, maintained for 6 months” value [3]?
Answer: ≥ 6 fold

Source: publication PMC10470178, “Long-acting lenacapavir protects macaques against intravenous challenge with simian-tropic HIV” (eBioMedicine, 2023)
